# Measured values reported in ChEMBL document CHEMBL4118280, “An imidazole based H-Phe-Phe-NH2 peptidomimetic with anti-allodynic effect in spared nerve injury mice” (Bioorg Med Chem Lett, 2018).
# Active and inactive are the calls of the source.
# Assays:
# Mus musculus [1] = assay: Antiallodynic activity in NMRI mouse model of spared nerve injury-induced mechanical allodynia assessed as pain relief at 585 umol/kg, ip administered 14 days post spared nerve injury surgery measured at 30 mins post dose Von Frey filament assay; format: functional, organism-based
# Mus musculus [2] = assay: Antiallodynic activity in ip dosed NMRI mouse model of spared nerve injury-induced mechanical allodynia assessed as pain relief administered 14 days post spared nerve injury surgery measured at 15 to 60 mins post dose by Von Frey filament assay; format: functional
# Mus musculus [3] = assay: Antiallodynic activity in NMRI mouse model of spared nerve injury-induced mechanical allodynia assessed as pain relief at 585 umol/kg, ip administered 14 days post spared nerve injury surgery measured at 60 mins post dose by Von Frey filament assay; format: functional, organism-based
# Mus musculus [4] = assay: Antiallodynic activity in NMRI mouse model of spared nerve injury-induced mechanical allodynia assessed as pain relief at 585 umol/kg, ip administered 14 days post spared nerve injury surgery measured at 180 mins post dose by Von Frey filament assay; format: functional, organism-based
# Mus musculus [5] = assay: Antiallodynic activity in NMRI mouse model of spared nerve injury-induced mechanical allodynia assessed as increase in mechanical threshold at 185 nmol/kg, ip administered 14 days post spared nerve injury surgery measured at 15 to 60 mins post dose by Von Frey filament assay; format: functional, organism-based
# [6] = Half life in NMRI mouse plasma at 4 uM after 180 mins by LC-MS/MS analysis; format: ADME, cell-free
# Mus musculus [7] = assay: Antiallodynic activity in NMRI mouse model of spared nerve injury-induced mechanical allodynia assessed as increase in mechanical threshold at 185 to 1850 nmol/kg, ip administered 14 days post spared nerve injury surgery measured at 15 to 60 mins post dose by Von Frey filament assay; format: functional, organism-based
# Mus musculus [8] = assay: Potency index, ratio of morphine ED50 to compound ED50 for antiallodynic activity in ip dosed NMRI mouse model of spared nerve injury-induced mechanical allodynia by Von Frey filament assay; format: functional
# [9] = Cytotoxicity against Sprague-Dawley rat primary cortical cells assessed as reduction in […] at 10^-5 to 10^-9 M after 24 hrs by LDH assay; format: cell-based
# [10] = Apparent permeability from basolateral to apical side in human Caco2 cells at 100 uM after 15 to 120 mins by LC-MS analysis; format: ADME, cell-based; settings: Caco-2
# [11] = Apparent permeability from basolateral to apical side in human Caco2 cells assessed as mass balance at 100 uM after 15 to 120 mins by LC-MS analysis; format: ADME, cell-based; settings: Caco-2, read-out: Activity
# Mus musculus [12] = assay: Potency index, ratio of gabapentin ED50 to compound ED50 for antiallodynic activity in ip dosed NMRI mouse model of spared nerve injury-induced mechanical allodynia by Von Frey filament assay; format: functional
# Mus musculus [13] = assay: Antiallodynic activity in NMRI mouse model of spared nerve injury-induced mechanical allodynia assessed as increase in mechanical threshold at 1.85 to 1850 nmol/kg, ip administered 14 days post spared nerve injury surgery measured at 30 mins post dose by Von Frey filament assay; format: functional, organism-based
# [14] = Apparent permeability from apical to basolateral side in human Caco2 cells at 100 uM after 15 to 120 mins by LC-MS analysis; format: ADME, cell-based; settings: Caco-2
# Mus musculus [15] = assay: Antiallodynic activity in ip dosed NMRI mouse model of spared nerve injury-induced mechanical allodynia assessed as increase in mechanical threshold administered 14 days post spared nerve injury surgery by Von Frey filament assay; format: functional, organism-based
# [16] = Efflux ratio of apparent permeability from basolateral to apical over apical to basolateral side in human Caco2 cells at 100 uM after 15 to 120 mins by LC-MS analysis; format: ADME, cell-based; settings: Caco-2
# Mus musculus [17] = assay: Antiallodynic activity in NMRI mouse model of spared nerve injury-induced mechanical allodynia assessed as increase in mechanical threshold at 1.85 to 1850 nmol/kg, ip administered 14 days post spared nerve injury surgery measured at 45 mins post dose by Von Frey filament assay; format: functional, organism-based
# [18] = Cytotoxicity against Sprague-Dawley rat primary cortical cells assessed as reduction in cell viability at 10^-5 to 10^-9 M after 24 hrs by MTT assay; format: cell-based
# [19] = Half life in human plasma at 4 uM after 180 mins by LC-MS/MS analysis; format: ADME, cell-free
# [20] = Apparent permeability from apical to basolateral side in human Caco2 cells assessed as mass balance at 100 uM after 15 to 120 mins by LC-MS analysis; format: ADME, cell-based; settings: Caco-2, read-out: Activity
# Mus musculus [21] = assay: Antiallodynic activity in NMRI mouse model of spared nerve injury-induced mechanical allodynia assessed as increase in mechanical threshold at 185 nmol/kg, ip administered 14 days post spared nerve injury surgery and co-treated with 1850 nmol/kg, ip D-SP1-7 by Von Frey filament assay; format: functional, organism-based
# Mus musculus [22] = assay: Antiallodynic activity in NMRI mouse model of spared nerve injury-induced mechanical allodynia assessed as pain relief at 12 umol/kg, ip administered 14 days post spared nerve injury surgery measured at 45 mins post dose by Von Frey filament assay; format: functional, organism-based
Compound,ED50 (Mus musculus [2]) [µmol/kg],Activity (Mus musculus [5]),half-life at 4 µM [6] [min],Papp B→A at 100 µM [10] [×10⁻⁶ cm/s],recovery at 100 µM [11] [%],Papp A→B at 100 µM [14] [×10⁻⁶ cm/s],efflux ratio at 100 µM [16],recovery at 100 µM [20] [%],other results
NCC1(CC(=O)O)CCCCC1 [GABAPENTIN],336,,,,,,,,Activity (Mus musculus [1]): Active; Activity (Mus musculus [3]): Active; Activity (Mus musculus [4]): inactive
H-RPKPQQF-NH2,,Active,6.4,,,,,,
NC(=O)[C@H](Cc1ccccc1)NC(=O)c1[nH]cnc1-c1ccccc1,0.21,Active,≥ 180,16,67,0.84,19,65,Activity (Mus musculus [7]): Active; Ratio ED50 (Mus musculus [8]): 30; Activity [9]: Non-Toxic; Ratio ED50 (Mus musculus [12]): 1600; Activity (Mus musculus [13]): Active; Activity (Mus musculus [15]): Dose-dependent effect; Activity (Mus musculus [17]): inactive; Activity [18]: Non-Toxic; half-life at 4 µM [19]: > 180 min; Activity (Mus musculus [21]): inactive
CN1CC[C@]23c4c5ccc(O)c4O[C@H]2[C@@H](O)C=C[C@H]3[C@H]1C5 [MORPHINE],6.5,,,,,,,,Activity (Mus musculus [22]): Active
H-RPKPQQF-OH,,,4.4,,,,,,
OC[C@@H](O)[C@@H](O)[C@H](O)[C@H](O)CO [MANNITOL],,,,0.2,99 to 103,0.1,1.4,97 to 101,
